# Results published in ChEMBL document CHEMBL1649565, “Besifloxacin, a novel fluoroquinolone, has broad-spectrum in vitro activity against aerobic and anaerobic bacteria” (Antimicrob Agents Chemother, 2009).
# Activity calls are given as the source filed them. The calls are words filed in the database; no cut-off is given here.
# What was measured:
# Enterococcus faecium = assay: Antibacterial activity against vancomycin- resistant Enterococcus faecium assessed as percent susceptible isolates by CLSI M100-S18 method; assay type: functional
# Citrobacter koseri = assay: Antibacterial activity against Citrobacter koseri assessed as percent susceptible isolates by CLSI M7-A7 method; assay type: functional
# Klebsiella oxytoca = assay: Antibacterial activity against Klebsiella oxytoca assessed as percent susceptible isolates by CLSI M7-A7 method; assay type: functional
# Morganella morganii = assay: Antibacterial activity against Morganella morganii assessed as percent susceptible isolates by CLSI M7-A7 method; assay type: functional
# Neisseria meningitidis = assay: Antibacterial activity against Neisseria meningitidis assessed as percent susceptible isolates by CLSI M7-A7 method; assay type: functional
# [1] = Drug concentration in human tears at 0.6% administered topically as single dose measured after 24 hrs; assay type: ADME; conditions: topical or ocular, read-out: Drug uptake
# Peptostreptococcus sp. [2] = assay: Antibacterial activity against Peptostreptococcus sp. by CLSI M11-A7 method; assay type: functional
# Prevotella sp. [3] = assay: Antibacterial activity against Prevotella sp. by CLSI M11-A7 method; assay type: functional
# Cutibacterium acnes [4] = assay: Antibacterial activity against Propionibacterium acnes by CLSI M11-A7 method; assay type: functional
# Bacteroides fragilis = assay: Antibacterial activity against Bacteroides fragilis assessed as percent susceptible isolates by CLSI M11-A7 method; assay type: functional
# Fusobacterium sp. = assay: Antibacterial activity against Fusobacterium sp. assessed as percent susceptible isolates by CLSI M11-A7 method; assay type: functional
# Peptostreptococcus sp. [5] = assay: Antibacterial activity against Peptostreptococcus sp. assessed as percent susceptible isolates by CLSI M11-A7 method; assay type: functional
# Prevotella sp. [6] = assay: Antibacterial activity against Prevotella sp. assessed as percent susceptible isolates by CLSI M11-A7 method; assay type: functional
# Cutibacterium acnes [7] = assay: Antibacterial activity against Propionibacterium acnes assessed as percent susceptible isolates by CLSI M11-A7 method; assay type: functional
# [8] = Antibacterial activity against Lancefield Streptococcus sp. 'group C' assessed as percent susceptible isolates by CLSI M100-S18 method; assay type: functional
# [9] = Antibacterial activity against Lancefield Streptococcus sp. 'group G' assessed as percent susceptible isolates by CLSI M100-S18 method; assay type: functional
structure (smiles),measurement,setting,value
C[C@H]1COc2c(N3CCN(C)CC3)c(F)cc3c(=O)c(C(=O)O)cn1c23.C[C@H]1COc2c(N3CCN(C)CC3)c(F)cc3c(=O)c(C(=O)O)cn1c23.O [LEVOFLOXACIN],Activity,Enterococcus faecium,30.9%
same,Activity,Citrobacter koseri,99%
same,Activity,Klebsiella oxytoca,90%
same,Activity,Morganella morganii,76.5%
same,Activity,Neisseria meningitidis,100%
N[C@@H]1CCCCN(c2c(F)cc3c(=O)c(C(=O)O)cn(C4CC4)c3c2Cl)C1 [BESIFLOXACIN],concentration at 24 h,[1],1600 ng/mL
same,MIC50,Peptostreptococcus sp. [2],0.25 µg/mL
same,MIC90,Peptostreptococcus sp. [2],0.5 µg/mL
same,MIC50,Prevotella sp. [3],1 µg/mL
same,MIC90,Prevotella sp. [3],4 µg/mL
same,MIC50,Cutibacterium acnes [4],0.25 µg/mL
same,MIC90,Cutibacterium acnes [4],0.25 µg/mL
same,Activity,Bacteroides fragilis,inactive
same,Activity,Fusobacterium sp.,inactive
same,Activity,Peptostreptococcus sp. [5],inactive
same,Activity,Prevotella sp. [6],inactive
same,Activity,Cutibacterium acnes [7],inactive
same,Activity,Clostridium perfringens,inactive
NC[C@H]1O[C@H](O[C@H]2[C@H](O)[C@@H](O[C@H]3O[C@H](CO)[C@@H](O)[C@H](N)[C@H]3O)[C@H](N)C[C@@H]2N)[C@H](N)C[C@@H]1O [TOBRAMYCIN],Activity,[8],74%
same,Activity,[9],74%
